Values of other authors as cited in article PMC2693004 (Bioorganic & medicinal chemistry letters, 2009).
“Also recorded” adds a separate entry of the source.

Biological target: T1, recombinant human MAO-A (Homo sapiens, UniProt P21397)
T1 sequence (P21397 1-527): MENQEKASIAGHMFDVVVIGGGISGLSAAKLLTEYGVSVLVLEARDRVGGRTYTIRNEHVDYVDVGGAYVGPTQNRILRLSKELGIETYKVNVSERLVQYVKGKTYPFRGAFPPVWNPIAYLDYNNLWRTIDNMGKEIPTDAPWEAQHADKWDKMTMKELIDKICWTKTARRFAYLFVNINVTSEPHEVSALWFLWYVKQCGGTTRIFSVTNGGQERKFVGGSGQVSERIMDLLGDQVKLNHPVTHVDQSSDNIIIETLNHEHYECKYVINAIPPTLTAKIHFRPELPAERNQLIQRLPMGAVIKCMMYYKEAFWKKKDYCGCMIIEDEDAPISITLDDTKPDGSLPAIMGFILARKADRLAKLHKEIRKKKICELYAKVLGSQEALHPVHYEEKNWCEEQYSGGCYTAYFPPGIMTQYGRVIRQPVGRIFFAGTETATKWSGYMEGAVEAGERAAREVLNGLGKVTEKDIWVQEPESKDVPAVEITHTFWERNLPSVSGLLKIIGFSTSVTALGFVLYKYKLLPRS

Row | SMILES | binding to MAO-A
1 | C(=CCc1ccccc1)Cc1ccccc1 [1,4-diphenyl-2-butene] | do not to bind
2 | Cn1c(=O)c2c(nc(/C=C/c3cccc(Cl)c3)n2C)n(C)c1=O [CSC, (E)-8-(3-chlorostyryl)caffeine] | does not bind; also recorded: do not to bind
